Measured values from PMC6225165, “Design and Synthesis of Novel Dehydroepiandrosterone Analogues as Potent Antiproliferative Agents” (Molecules : A Journal of Synthetic Chemistry and Natural …, 2018).

Legend:
A549 = assay: MTT antiproliferative assay, A549; assay type: cell-based, human; conditions: 100 μM, 48 h, MTT; for inhibition at 100 µM: Homo sapiens, A549, read-out: % Growth Inhibition at 100 μM A549
Protocol: (§1) The antiproliferative activity of the title compounds against the panel of six different human cancer cell lines, viz. lung (A549), cervix (HeLa), liver (HepG-2), liver (BEL7402), colorectal (HCT116), and breast (MCF-7) cell lines, was evaluated using a standard MTT-based colorimetric assay. All cell lines were obtained from the Key Laboratory of Natural Resources and Functional Molecules of the Changbai Mountain (Yanbian University) and maintained in Dulbecco’s modified Eagle’s medium (DMEM) and RPMI Media 1640 (RPMI1640), supplemented with 10% foetal bovine serum (FBS) at 37 °C in a humidified atmosphere containing 5% CO2.
(§2) Cells were plated in 96-well plates at appropriate densities to ensure exponential growth throughout the experimental period (9 × 10^3 cells per well), and then allowed to adhere for 24 h. Cells were then treated for 48 h with each compound. After 48 h of incubation, 10 μL of MTT solution were added to each well to a final concentration of 2 mg·mL^−1. Plates were then incubated for a further 4 h. After incubation, the MTT solution was removed and 150 μL of DMSO were added to each well for coloration. The plates were shaken vigorously for 10 min at room temperature to ensure complete solubilisation. The optometric density (OD) was read on a microplate reader (EL × 800, BioTek, Highland Park, Winooski, VT, USA) at 492 nm, and the data were subsequently analysed. The percentage of cell growth inhibition was calculated from the following equation:Inhibitory rate (%) = [1 − (ODtreated − ODblank)/(ODcontrol − ODblank)] × 100.
(§3) To obtain the antiproliferative activity of compounds 2a–2w, the compounds were selected in the same way with four serial concentrations (1, 10, 50 and 100 μM) of those compounds. The optometric density (OD) reading was then used to calculate the IC50.

Hela = assay: MTT antiproliferative assay, Hela; assay type: cell-based, human; conditions: 100 μM, 48 h, MTT; for inhibition at 100 µM: Homo sapiens, read-out: % Growth Inhibition at 100 μM Hela
Protocol: as §1, §2, §3

HepG-2 = assay: MTT antiproliferative assay, HepG-2; assay type: cell-based, human; conditions: 100 μM, 48 h, MTT; for inhibition at 100 µM: Homo sapiens, HepG2, read-out: % Growth Inhibition at 100 μM HepG-2
Protocol: as §1, §2, §3

BEL7402 = assay: MTT antiproliferative assay, BEL7402; assay type: cell-based, human; conditions: 100 μM, 48 h, MTT; for inhibition at 100 µM: Homo sapiens, Bel-7402, read-out: % Growth Inhibition at 100 μM BEL7402
Protocol: as §1, §2, §3

HCT116 = assay: MTT antiproliferative assay, HCT116; assay type: cell-based, human; conditions: 100 μM, 48 h, MTT; for inhibition at 100 µM: Homo sapiens, HCT-116, read-out: % Growth Inhibition at 100 μM HCT116
Protocol: as §1, §2, §3

MCF-7 = assay: MTT antiproliferative assay, MCF-7; assay type: cell-based, human; conditions: 100 μM, 48 h, MTT; for inhibition at 100 µM: Homo sapiens, MCF7, read-out: % Growth Inhibition at 100 μM MCF-7
Protocol: as §1, §2, §3

[1] = test system: human normal liver (L02) cells; assay: MTT assay on normal cell line L02; assay type: cell-based; conditions: 100 μM, 48 h, MTT, normal cells; for inhibition at 100 µM: Homo sapiens, L02, read-out: % Growth Inhibition at 100 μM L02

Structure (SMILES): CC12CCC3C(CC=C4CC(O)CCC43C)C1C/C(=C\c1cn(-c3ccccc3I)nn1)C2=O (stereo not shown) [Compound 2l, (E)-3-hydroxy-16-((1-(2-iodophenyl)-1H-1,2,3-triazol-4-yl)methylene)-10,13-dim-ethyl-1,3,4,7,8,9,10,11,12,13,15,16-dodecahydro-2H-cyclopenta[a]phenanthren-17(14H)-one]
- % Growth Inhibition at 100 μM A549 (A549): NA (NA: antiproliferative activity <5%)
- % Growth Inhibition at 100 μM Hela (Hela): NA (NA: antiproliferative activity <5%)
- % Growth Inhibition at 100 μM HepG-2 (HepG-2): NA (NA: antiproliferative activity <5%)
- % Growth Inhibition at 100 μM BEL7402 (BEL7402): NA (NA: antiproliferative activity <5%)
- % Growth Inhibition at 100 μM HCT116 (HCT116): NA (NA: antiproliferative activity <5%)
- % Growth Inhibition at 100 μM MCF-7 (MCF-7): NA (NA: antiproliferative activity <5%)
- % Growth Inhibition at 100 μM L02 [1]: NA (NA: antiproliferative activity <5%)

Structure (SMILES): CC12CCC3C(CC=C4CC(O)CCC43C)C1C/C(=C\c1cn(-c3ccc([N+](=O)[O-])cc3)nn1)C2=O (stereo not drawn) [Compound 2v, (E)-3-hydroxy-10,13-dimethyl-16-((1-(4-nitrophenyl)-1H-1,2,3-triazol-4-yl)methylene)1,3,4,7,8,9,10,11,12,13,15,16-dodecahydro-2H-cyclopenta[α]phenan-thren-17(14H)-one]
- % Growth Inhibition at 100 μM A549 (A549): NA (NA: antiproliferative activity <5%)
- % Growth Inhibition at 100 μM Hela (Hela): NA (NA: antiproliferative activity <5%)
- % Growth Inhibition at 100 μM HepG-2 (HepG-2): 12.4%
- % Growth Inhibition at 100 μM BEL7402 (BEL7402): 13.2%
- % Growth Inhibition at 100 μM HCT116 (HCT116): 10.2%
- % Growth Inhibition at 100 μM MCF-7 (MCF-7): NA (NA: antiproliferative activity <5%)
- % Growth Inhibition at 100 μM L02 [1]: 5.5%

Structure (SMILES): CC12CCC3C(CC=C4CC(O)CCC43C)C1C/C(=C\c1cn(-c3cccc(Cl)c3)nn1)C2=O (stereo not shown) [Compound 2f, (E)-16-((1-(3-chlorophenyl)-1H-1,2,3-triazol-4-yl)methylene)-3-hydroxy-10,13-dimethyl-1,3,4,7,8,9,10,11,12,13,15,16-dodecahydro-2H-cyclopenta[a]phenanthren-17(14H)-one]
- inhibition at 100 µM (A549): 11.9%
- inhibition at 100 µM (Hela): 9.2%
- inhibition at 100 µM (HepG-2): 51.7%
- inhibition at 100 µM (BEL7402): 36.5%
- inhibition at 100 µM (HCT116): 41.9%
- inhibition at 100 µM (MCF-7): 41%
- inhibition at 100 µM [1]: 60.2%

Structure (SMILES): CC12CCC3C(CC=C4CC(O)CCC43C)C1C/C(=C\c1cn(-c3ccccc3)nn1)C2=O (stereo not shown) [Compound 2a, (E)-3-hydroxy-10,13-dimethyl-16-((1-phenyl-1H-1,2,3-triazol-4-yl)methylene)-1,3,4,7,8,9,10,11,12,13,15,16-dodecahydro-2H-cyclopenta[a]phenanthren-17(14H)-one]
- inhibition at 100 µM (A549): 30.3%
- inhibition at 100 µM (Hela): < 5%
- inhibition at 100 µM (HepG-2): 10.2%
- inhibition at 100 µM (BEL7402): 12.9%
- inhibition at 100 µM (HCT116): 11.1%
- inhibition at 100 µM (MCF-7): < 5%
- inhibition at 100 µM [1]: 22.3%
